Source: article PMC6556873, “Rapid Covalent-Probe Discovery by Electrophile-Fragment Screening” (Journal of the American Chemical Society, 2019)
Read-outs that look alike come from different tables or passages of the source.

How the values were obtained:
in vitro [1] = assay: in vitro; set-up: species or system HB2, HEK293; conditions: human, ccd841 cells
in vitro [2] = assay: in vitro; set-up: species or system CCD841, HEK293; conditions: human, hb2 cells, read-out: HB-2 Cells Viability (%)
NUDT7 = target: T1, NUDT7 (Homo sapiens, UniProt P0C024); set-up: Intact protein LC/MS covalent labelling, fragments in pools of five, 200 uM each, 4 °C; conditions: 24 h, 4 °C, pool of five; 200 µM; covalent
T1 construct: residues 14-235, E. coli, pNIC28-Bsa4, N-terminal His6 tag removed by TEV, construct 26672 Da
T1 sequence (P0C024 14-235): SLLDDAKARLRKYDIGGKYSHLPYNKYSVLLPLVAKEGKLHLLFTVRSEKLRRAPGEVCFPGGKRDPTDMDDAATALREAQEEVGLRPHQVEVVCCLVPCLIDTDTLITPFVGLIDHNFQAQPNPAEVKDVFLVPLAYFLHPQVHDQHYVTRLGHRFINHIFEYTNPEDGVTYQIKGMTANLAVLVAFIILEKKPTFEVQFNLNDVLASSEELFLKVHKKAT

OTUB2 (OTUB2A) = target: T2, OTUB2 (OTUB2A) (Homo sapiens, UniProt Q96DC9); set-up: Intact protein LC/MS covalent labelling, fragments in pools of five, 200 uM each, 4 °C; conditions: 24 h, 4 °C, pool of five; 200 µM; covalent
T2 construct: full length residues 1-234, E. coli BL21(DE3)-R3, His tag removed by TEV, construct 27312 Da
T2 sequence (Q96DC9 1-234): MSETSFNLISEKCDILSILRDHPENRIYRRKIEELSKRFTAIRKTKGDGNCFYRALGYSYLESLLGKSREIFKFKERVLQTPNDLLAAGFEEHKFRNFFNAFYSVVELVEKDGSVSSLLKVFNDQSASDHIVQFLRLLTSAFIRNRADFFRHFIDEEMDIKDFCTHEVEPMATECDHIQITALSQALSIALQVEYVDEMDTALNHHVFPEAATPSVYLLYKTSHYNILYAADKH

BSA = target: T3, BSA (Bos taurus, UniProt P02769); set-up: Intact protein LC/MS covalent labelling, fragments in pools of five, 200 uM each, 4 °C; conditions: 24 h, 4 °C, pool of five; 200 µM; covalent
T3 construct: gene ALB
T3 sequence (P02769 whole entry, the tested form may be a part): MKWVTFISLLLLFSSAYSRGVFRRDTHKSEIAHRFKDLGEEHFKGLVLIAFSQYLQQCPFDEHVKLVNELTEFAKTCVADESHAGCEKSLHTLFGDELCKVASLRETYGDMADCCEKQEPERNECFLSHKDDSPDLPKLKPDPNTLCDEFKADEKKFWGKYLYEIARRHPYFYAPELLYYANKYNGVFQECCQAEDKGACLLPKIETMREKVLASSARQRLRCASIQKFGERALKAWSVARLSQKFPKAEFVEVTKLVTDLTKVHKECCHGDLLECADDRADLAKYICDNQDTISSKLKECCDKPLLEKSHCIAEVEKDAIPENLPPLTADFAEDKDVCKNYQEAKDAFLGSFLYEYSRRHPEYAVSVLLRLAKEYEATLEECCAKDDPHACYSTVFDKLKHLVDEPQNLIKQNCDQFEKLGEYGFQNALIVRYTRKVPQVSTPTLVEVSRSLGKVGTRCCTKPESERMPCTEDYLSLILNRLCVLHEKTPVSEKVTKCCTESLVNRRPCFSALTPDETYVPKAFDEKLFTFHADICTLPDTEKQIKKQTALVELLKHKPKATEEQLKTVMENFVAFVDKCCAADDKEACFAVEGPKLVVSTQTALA

PCAF = target: T4, PCAF (Homo sapiens, UniProt Q92831); set-up: Intact protein LC/MS covalent labelling, fragments in pools of five, 200 uM each, 4 °C; conditions: 24 h, 4 °C, pool of five; 200 µM; covalent
T4 construct: gene KAT2B
T4 sequence (Q92831 whole entry, the tested form may be a part): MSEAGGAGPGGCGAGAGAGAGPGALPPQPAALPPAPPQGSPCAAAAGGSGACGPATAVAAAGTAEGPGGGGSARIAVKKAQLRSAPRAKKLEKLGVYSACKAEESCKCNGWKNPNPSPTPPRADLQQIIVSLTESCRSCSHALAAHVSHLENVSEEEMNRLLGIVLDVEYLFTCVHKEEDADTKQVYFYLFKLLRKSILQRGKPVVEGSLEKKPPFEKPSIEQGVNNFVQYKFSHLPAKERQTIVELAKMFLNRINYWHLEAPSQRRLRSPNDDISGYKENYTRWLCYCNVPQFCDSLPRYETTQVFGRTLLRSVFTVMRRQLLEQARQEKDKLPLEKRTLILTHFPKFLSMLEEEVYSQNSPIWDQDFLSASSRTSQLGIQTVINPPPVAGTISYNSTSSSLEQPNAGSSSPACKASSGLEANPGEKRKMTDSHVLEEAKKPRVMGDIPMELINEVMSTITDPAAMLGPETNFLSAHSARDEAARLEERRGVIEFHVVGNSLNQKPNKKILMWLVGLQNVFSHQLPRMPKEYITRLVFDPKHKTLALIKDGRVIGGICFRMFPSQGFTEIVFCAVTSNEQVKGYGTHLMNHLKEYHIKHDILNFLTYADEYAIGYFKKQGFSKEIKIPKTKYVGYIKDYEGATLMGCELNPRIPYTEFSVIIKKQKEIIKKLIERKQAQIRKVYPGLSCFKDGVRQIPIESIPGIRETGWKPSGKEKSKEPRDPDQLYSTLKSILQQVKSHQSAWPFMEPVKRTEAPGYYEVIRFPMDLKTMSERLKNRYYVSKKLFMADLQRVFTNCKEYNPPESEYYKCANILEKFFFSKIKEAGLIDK

in vitro [3] = assay: in vitro; set-up: species or system HB2, CCD841; conditions: human, hek293 cells

| SMILES | viability at 48 h, 10 µM (in vitro [1]) | viability at 48 h, 10 µM (in vitro [2]) | NUDT7 (NUDT7) | OTUB2 (OTUB2 (OTUB2A)) | BSA (BSA) | PCAF (PCAF) | viability at 48 h, 10 µM (in vitro [3]) |
| --- | --- | --- | --- | --- | --- | --- | --- |
| Cc1cc(NC(=O)CCl)n(C(C)(C)C)n1 [PCM-0103057] | 61.7% | 76.3% | 0 | 0 | 0 | 0 | 58.6% |
| O=C(CCl)N1CCCc2cc(S(=O)(=O)N3CCCC3)ccc21 [PCM-0102625] | 12.2% | 5.4% | 0 | 0 | 0 | 0 | 2.5% |
| O=C(CCl)N1CCN(S(=O)(=O)c2c(F)cccc2F)CC1 [PCM-0102201] | 57.6% | 9.5% | 0 | 0 | 0 | 0 | 11.1% |
| NC(=O)C1CCN(C(=O)CCl)CC1 [PCM-0102584] | 97.9% | 105% | 0 | 0 | 0 | 0 | 89.8% |
| O=C(CCl)Nc1nc2ccc(F)cc2s1 [PCM-0102294] | 62.7% | 53% | 0.89 | 0 | 0 | 0 | 76.7% |
| Cc1n[nH]c(C)c1NC(=O)CCl [PCM-0102588] | 98.7% | 102% | 0 | 0 | 0 | 0 | 98.6% |
| O=C(CCl)Nc1ccc(Cl)cc1Cl [PCM-0102914] | 82.7% | 52.5% | 0.22 | 0.14 | 0 | 0 | 38.3% |
| O=C(CCl)Nc1ccc(N2CCOCC2)cc1 [PCM-0102582] | 79.5% | 74.9% | 0 | 0.54 | 0 | 0 | 57.2% |
| CN(Cc1ccc(Cl)c(Cl)c1)C(=O)CCl [PCM-0102349] | 3.9% | 1.7% | 0.59 | 0 | 0 | 0 | 1.4% |
| CC(C)(C)NC(=O)CNC(=O)CCl [PCM-0102817] | 87.5% | 102% | 0 | 0.41 | 0 | 0 | 101% |
| O=C(CCl)NC1CS(=O)(=O)CC1Cl (stereo not drawn) [PCM-0102291] | 76.3% | 99.6% | 0.12 | 0 | 0 | 0 | 91.6% |
| C=CC(=O)NC1CCOC2(CCS(=O)(=O)C2)C1 (stereo not drawn) [PCM-0102645] | 115% | 102% | 0 | 0 | 0 | 0 | 110% |
| C=CC(=O)N1CCCc2[nH]c3ccc(F)cc3c2C1 [PCM-0102485] | 106% | 95.2% | 0 | 0 | 0.12 | 0 | 105% |
| CC(C)(C)C1CCc2sc(C(=O)NNC(=O)CCl)cc2C1 (stereo not drawn) [PCM-0102260] | 29.7% | 64% | 0 | 0.67 | 0 | 0 | 10.2% |
| CC1CCC(NC(=O)CCl)CC1 (stereo not drawn) [PCM-0102913] | 86.2% | 96.2% | 0 | 0.08 | 0 | 0 | 72.4% |
| O=C(CCl)Nc1cc2c(cc1Br)OCCO2 [PCM-0102299] | 62.8% | 15.8% | 0.27 | 0.67 | 0 | 0 | 12.6% |
| CC(c1cc2ccccc2o1)N(C)C(=O)CCl (stereo not drawn) [PCM-0102971] | 34.1% | 13.3% | 0.66 | 0 | 0 | 0 | 10.1% |
| C=CC(=O)NCC1COc2ccccc2O1 (stereo not drawn) [PCM-0102713] | 102% | 99% | 0.16 | 0 | 0 | 0 | 76.1% |
| O=C(CCl)NCc1ccc2c(c1)OCO2 [PCM-0102578] | 99.9% | 97.5% | 0 | 0.16 | 0 | 0 | 85.6% |
| CN(C(=O)CCl)C1(C#N)CCCCC1 [PCM-0102916] | 47.6% | 38% | 0 | 0 | 0 | 0 | 7.5% |
| O=C(CCl)Nc1ccc(Cl)cc1C(=O)O [PCM-0102127] | 104% | 100% | 0 | 0.1 | 0 | 0 | 86.8% |
| O=C(CCl)Nc1cccnc1N1CCCC1 [PCM-0102852] | 100% | 106% | 0 | 0 | 0 | 0 | 115% |
| C=CC(=O)N1CCN(c2nc3ccccc3o2)C(C)C1 (stereo not drawn) [PCM-0102441] | 99.4% | 96.7% | 0 | 0 | 0 | 0 | 88.3% |
| COCC(=O)NNC(=O)CCl [PCM-0103070] | 85.8% | 95.3% | 0 | 0 | 0 | 0 | 97.1% |
